These results are taken from publication PMC12251226, “Comparison of in silico predictions of action potential duration in response to inhibition of IKr and ICaL with new human ex vivo recordings” (PLOS Computational Biology, 2025).

Where two headings read alike, the source gives them in different places.

Data set [1] deals with T1, CaV1.2 channels (Homo sapiens, UniProt Q13936). The settings on record: CaV1.2, CHO cells, Pharm protocol.
Data set [2] deals with T1, CaV1.2 channels. The settings on record: CaV1.2, CHO cells, CiPA protocol.
Data set [3] deals with adult human ventricular trabeculae. Put plainly: Ex vivo sharp electrode action potential recording (APD90) in ventricular trabeculae, 1 Hz pacing. Particulars: for Change in APD90 (in words): over the tested concentrations; for Mean ΔAPD90 (SEM): 25 min steady 1 Hz pacing.
Data set [4] deals with CaV1.2 (ICaL) (Homo sapiens, UniProt Q13936). Put plainly: in vitro. The settings on record: CHO cells expressing human CaV1.2/β2/α2δ.
For data set [5], the target named is T2, hERG channels (Homo sapiens, UniProt Q12809). Put plainly: Automated patch clamp, IKr CiPA protocol, CHO cells. Also on record: expressed in transfected cells; host or cells: CHO (crelox). The format is cell-based.
Data set [6] has as its target hERG (IKr) (Homo sapiens, UniProt Q12809). Put plainly: Automated patch clamp, IKr Pharm (Roche in-house) protocol, CHO cells. The settings on record: human. (In general: Patch clamp records ionic current or voltage across a cell membrane.)
Data set [7] concerns hERG. The settings on record: cited from earlier work.
Data set [8] deals with T1, CaV1.2 channels. Put plainly: cell-based.
Data set [9] addresses T1, CaV1.2 channels. Put plainly: cell-based. This is another data set of the same source.
Data set [10] concerns the target T2, hERG channels. Put plainly: Automated patch clamp, IKr Pharm (Roche in-house) protocol, CHO cells. Particulars: hERG, CHO cells, Pharm protocol.

T1 sequence (Q13936 whole entry): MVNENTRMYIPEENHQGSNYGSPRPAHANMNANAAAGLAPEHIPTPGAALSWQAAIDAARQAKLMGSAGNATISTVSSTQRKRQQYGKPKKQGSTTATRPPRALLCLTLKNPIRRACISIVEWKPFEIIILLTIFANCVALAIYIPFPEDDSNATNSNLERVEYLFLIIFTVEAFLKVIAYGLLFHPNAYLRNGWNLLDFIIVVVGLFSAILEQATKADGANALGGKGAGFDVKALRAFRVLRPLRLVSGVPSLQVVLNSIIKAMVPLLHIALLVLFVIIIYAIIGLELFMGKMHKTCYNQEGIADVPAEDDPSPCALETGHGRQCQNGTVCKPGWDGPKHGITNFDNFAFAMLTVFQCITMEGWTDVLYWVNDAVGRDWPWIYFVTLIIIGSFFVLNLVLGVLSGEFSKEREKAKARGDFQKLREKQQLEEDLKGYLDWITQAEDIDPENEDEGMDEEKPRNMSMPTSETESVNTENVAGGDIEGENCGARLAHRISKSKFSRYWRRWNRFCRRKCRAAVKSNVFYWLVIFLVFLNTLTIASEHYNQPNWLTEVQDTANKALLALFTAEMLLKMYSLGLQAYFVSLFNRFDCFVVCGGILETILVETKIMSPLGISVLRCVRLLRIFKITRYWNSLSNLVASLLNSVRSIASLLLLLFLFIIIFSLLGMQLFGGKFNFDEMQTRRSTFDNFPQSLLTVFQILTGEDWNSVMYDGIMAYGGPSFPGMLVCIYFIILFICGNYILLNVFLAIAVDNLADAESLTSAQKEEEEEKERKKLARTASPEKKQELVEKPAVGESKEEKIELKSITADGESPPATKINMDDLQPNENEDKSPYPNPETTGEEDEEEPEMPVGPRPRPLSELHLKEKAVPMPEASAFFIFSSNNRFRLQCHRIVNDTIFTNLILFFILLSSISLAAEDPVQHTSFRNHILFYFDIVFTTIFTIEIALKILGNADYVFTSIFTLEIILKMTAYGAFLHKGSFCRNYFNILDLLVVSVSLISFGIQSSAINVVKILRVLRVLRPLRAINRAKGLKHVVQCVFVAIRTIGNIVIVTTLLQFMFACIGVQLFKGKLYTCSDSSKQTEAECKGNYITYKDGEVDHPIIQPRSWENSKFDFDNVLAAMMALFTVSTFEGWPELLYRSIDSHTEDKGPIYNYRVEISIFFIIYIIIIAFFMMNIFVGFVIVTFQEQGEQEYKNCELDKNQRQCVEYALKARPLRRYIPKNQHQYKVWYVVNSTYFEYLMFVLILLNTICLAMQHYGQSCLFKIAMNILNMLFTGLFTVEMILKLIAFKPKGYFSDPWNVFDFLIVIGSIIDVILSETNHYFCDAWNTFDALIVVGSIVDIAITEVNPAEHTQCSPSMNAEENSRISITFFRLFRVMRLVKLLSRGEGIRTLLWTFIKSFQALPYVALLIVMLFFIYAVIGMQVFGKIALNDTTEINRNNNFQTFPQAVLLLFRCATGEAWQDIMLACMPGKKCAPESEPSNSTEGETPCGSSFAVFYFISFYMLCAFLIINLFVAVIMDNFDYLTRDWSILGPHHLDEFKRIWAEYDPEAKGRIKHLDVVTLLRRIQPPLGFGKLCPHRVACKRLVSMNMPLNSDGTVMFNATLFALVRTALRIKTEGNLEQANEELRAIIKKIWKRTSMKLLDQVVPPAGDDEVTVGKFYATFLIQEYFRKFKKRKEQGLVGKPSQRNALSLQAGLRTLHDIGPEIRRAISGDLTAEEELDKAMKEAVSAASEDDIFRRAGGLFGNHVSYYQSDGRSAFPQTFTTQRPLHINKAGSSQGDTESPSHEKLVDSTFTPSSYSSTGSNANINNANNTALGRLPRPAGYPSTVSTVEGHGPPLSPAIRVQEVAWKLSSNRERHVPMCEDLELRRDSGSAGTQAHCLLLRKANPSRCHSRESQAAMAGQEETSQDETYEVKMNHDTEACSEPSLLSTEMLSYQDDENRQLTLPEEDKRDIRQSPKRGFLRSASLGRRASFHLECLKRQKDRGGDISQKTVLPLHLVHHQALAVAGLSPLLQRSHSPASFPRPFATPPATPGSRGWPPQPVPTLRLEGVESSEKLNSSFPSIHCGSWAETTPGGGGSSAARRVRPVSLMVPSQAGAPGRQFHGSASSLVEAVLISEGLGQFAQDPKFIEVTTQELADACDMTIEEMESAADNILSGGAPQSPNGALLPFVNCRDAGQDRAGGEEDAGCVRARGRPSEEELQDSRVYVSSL
T1 sequence (Q08289 whole entry partner): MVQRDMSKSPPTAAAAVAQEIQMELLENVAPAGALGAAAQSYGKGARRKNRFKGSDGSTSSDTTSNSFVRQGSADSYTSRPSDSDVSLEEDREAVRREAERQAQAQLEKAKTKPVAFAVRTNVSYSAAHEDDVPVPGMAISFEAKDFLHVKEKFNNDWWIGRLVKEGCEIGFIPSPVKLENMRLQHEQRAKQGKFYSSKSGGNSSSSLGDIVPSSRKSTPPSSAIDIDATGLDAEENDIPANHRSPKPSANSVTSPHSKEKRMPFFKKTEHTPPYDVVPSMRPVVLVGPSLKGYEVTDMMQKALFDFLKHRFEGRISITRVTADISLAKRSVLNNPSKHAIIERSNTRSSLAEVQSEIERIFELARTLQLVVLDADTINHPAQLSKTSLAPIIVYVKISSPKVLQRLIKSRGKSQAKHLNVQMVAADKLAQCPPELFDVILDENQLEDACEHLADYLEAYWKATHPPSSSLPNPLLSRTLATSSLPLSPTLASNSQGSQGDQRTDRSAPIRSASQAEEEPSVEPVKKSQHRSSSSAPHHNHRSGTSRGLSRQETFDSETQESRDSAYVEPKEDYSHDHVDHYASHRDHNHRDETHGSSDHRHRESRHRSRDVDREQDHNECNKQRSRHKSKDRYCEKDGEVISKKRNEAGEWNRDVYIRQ
T1 sequence (P54289 25-956 partner limits assumed): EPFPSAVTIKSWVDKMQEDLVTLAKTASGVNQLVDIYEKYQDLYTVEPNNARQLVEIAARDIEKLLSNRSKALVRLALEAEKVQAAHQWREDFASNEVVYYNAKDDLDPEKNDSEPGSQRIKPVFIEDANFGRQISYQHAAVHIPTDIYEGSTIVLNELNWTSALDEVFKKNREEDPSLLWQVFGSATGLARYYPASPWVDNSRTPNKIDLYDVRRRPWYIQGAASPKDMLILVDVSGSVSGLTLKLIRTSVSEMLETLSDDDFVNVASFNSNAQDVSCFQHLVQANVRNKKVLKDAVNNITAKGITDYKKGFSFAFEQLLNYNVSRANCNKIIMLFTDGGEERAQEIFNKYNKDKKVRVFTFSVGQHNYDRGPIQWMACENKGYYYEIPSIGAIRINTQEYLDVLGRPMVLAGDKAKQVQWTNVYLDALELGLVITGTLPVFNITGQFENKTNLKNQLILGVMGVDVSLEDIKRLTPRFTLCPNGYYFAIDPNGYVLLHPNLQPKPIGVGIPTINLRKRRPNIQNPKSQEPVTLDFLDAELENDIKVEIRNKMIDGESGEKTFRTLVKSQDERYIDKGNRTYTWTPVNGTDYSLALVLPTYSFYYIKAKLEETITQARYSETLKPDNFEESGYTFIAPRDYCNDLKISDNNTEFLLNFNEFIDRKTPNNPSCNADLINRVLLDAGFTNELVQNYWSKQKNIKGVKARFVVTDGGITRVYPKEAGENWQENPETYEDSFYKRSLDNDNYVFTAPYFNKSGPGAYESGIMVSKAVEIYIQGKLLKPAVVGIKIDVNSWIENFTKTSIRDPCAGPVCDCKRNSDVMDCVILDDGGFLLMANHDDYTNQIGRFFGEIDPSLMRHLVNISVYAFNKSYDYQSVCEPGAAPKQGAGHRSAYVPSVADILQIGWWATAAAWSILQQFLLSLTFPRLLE
T1 sequence (P54289 957-1103 partner limits assumed): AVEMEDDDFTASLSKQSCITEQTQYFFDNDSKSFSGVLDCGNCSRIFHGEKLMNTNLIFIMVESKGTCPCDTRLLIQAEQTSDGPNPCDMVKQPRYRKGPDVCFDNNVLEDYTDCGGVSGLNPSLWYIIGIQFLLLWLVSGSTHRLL
T2 sequence (Q12809 whole entry): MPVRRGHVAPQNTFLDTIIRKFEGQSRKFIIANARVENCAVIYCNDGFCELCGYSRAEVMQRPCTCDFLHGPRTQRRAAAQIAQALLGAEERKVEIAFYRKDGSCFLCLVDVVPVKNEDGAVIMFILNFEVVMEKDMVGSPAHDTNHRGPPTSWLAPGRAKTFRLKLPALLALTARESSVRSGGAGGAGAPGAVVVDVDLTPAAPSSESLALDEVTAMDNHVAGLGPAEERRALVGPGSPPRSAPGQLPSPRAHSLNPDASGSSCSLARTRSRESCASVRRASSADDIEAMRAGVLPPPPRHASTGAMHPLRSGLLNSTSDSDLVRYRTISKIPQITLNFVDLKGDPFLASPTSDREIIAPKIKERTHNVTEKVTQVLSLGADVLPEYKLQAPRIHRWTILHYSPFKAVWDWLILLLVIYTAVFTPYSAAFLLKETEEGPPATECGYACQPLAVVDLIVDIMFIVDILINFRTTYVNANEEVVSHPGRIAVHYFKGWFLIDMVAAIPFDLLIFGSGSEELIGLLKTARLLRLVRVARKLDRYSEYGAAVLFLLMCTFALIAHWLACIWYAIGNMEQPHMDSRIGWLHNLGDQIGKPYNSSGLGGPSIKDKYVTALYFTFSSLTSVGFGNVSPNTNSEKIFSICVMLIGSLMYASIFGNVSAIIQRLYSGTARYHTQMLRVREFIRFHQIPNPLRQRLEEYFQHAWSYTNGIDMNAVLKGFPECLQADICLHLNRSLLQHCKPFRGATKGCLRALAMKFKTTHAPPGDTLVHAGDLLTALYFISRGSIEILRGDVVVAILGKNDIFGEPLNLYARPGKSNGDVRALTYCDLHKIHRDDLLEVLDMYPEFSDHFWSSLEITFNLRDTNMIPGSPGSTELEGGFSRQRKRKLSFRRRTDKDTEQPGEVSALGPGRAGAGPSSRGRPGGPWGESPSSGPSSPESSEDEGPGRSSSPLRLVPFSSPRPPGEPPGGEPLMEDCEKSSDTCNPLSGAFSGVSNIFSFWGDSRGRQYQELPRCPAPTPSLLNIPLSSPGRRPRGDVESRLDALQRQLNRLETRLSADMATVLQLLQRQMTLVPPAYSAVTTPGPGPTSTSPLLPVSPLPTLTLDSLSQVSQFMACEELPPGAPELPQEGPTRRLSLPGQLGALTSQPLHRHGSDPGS

As to `CN(C)CCCN1c2ccccc2Sc2ccc(Cl)cc21` [Chlorpromazine], in [1], the “ICaL Pharm Hill coefficient h” value is 0.88. The “ICaL CiPA Hill coefficient h” value in data set [2] was 0.93. For the same compound, in data set [3], the “Change in APD90 (in words)” value was “little or no change in APD90”.

Take `CN1CCN(C2=Nc3cc(Cl)ccc3Nc3ccccc32)CC1` [Clozapine]: the inhibition (in general, the change of the read-out against control, counted positive when it falls) at 3 µM in data set [4] turned out to be 59%; in data set [6], 57%. Also, in [5] (human), the “IKr CiPA Hill coefficient h” value turned out to be 0.94. Moreover, the “Change in APD90 (in words)” value in data set [3] is given as “little or no change in APD90”.

On to `CN(CCOc1ccc(NS(C)(=O)=O)cc1)CCc1ccc(NS(C)(=O)=O)cc1` [Dofetilide], for which the IC50 – broadly, the concentration at which inhibition is half-maximal – in [7] is […].

As to `CNCCC(Oc1ccc(C(F)(F)F)cc1)c1ccccc1` (centres unmarked) [Fluoxetine], the “ICaL Pharm Hill coefficient h” value in data set [1] is on record as 0.94. For the same compound, in data set [2], the “ICaL CiPA Hill coefficient h” value was 0.90. In addition, in data set [3] (nominal drug conc 3 μM), the “Mean ΔAPD90 (SEM)” value was “–2 (5) ms”. The “Change in APD90 (in words)” value in data set [3] is reported as “little or no change in APD90”.

For `CN1CCCCC1CCN1c2ccccc2Sc2ccc([S+](C)[O-])cc21` (centres unmarked) [Mesoridazine], the “ICaL Pharm Hill coefficient h” value in [1] was found to be 0.76. The “ICaL CiPA Hill coefficient h” value in data set [2] stood at 0.83. For the same compound, the figures for the IC50 in data set [8] and in [9] were 4060 nM and 3960 nM, respectively. Also, the “IKr CiPA Hill coefficient h” value in data set [5] (hERG, CHO cells, CiPA protocol) worked out at 0.74. The “IKr Pharm Hill coefficient h” value in data set [10] worked out at 1. In addition, the “Mean ΔAPD90 (SEM)” value in data set [3] (nominal drug conc 0.04 μM) is “–2 (7) ms”. Besides, the “Change in APD90 (in words)” value in data set [3] is given as “little or no change in APD90”.

As to `COC(=O)C1=C(C)NC(C)=C(C(=O)OC)C1c1ccccc1[N+](=O)[O-]` [Nifedipine], the entries for the “Mean ΔAPD90 (SEM)” value in [3] (nominal drug conc 0.03 μM) and in [3] (nominal drug conc 0.3 μM) were “–5 (6) ms” and “–24 (6) ms”, respectively.

As for `C=C[C@H]1C[N@@]2CC[C@H]1C[C@@H]2[C@@H](O)c1ccnc2ccc(OC)cc12` [Quinidine], the IC50 in data set [7] was […].

Turning to `COc1ccc(CCN(C)CCCC(C#N)(c2ccc(OC)c(OC)c2)C(C)C)cc1OC` (centres unmarked) [Verapamil], the “Mean ΔAPD90 (SEM)” value in data set [3] (nominal drug conc 0.01 μM) was “–15 (4) ms”; in data set [3] (nominal drug conc 0.1 μM), “–19 (5) ms”. Further, in data set [3], the “Change in APD90 (in words)” value is “substantially shortened APD90”.
